{
  "source": "patent US8394952B2",
  "about": "(Vertex Pharmaceuticals Incorporated, priority 2006, dated 2013)",
  "data": [
    {"molecular_target": "Plk1 (Homo sapiens, UniProt P53350)", "sequence (P53350 20-338)": "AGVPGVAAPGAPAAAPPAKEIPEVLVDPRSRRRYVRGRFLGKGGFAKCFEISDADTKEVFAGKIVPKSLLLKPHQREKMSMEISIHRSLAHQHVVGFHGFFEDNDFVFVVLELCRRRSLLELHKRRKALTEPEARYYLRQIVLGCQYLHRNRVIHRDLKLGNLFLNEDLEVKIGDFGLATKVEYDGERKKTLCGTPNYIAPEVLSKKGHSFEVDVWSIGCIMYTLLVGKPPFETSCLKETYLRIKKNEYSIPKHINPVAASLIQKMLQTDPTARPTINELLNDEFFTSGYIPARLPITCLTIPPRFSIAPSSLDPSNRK", "experiment": "biochemical", "units": {"Ki": "nM"}, "values": [
      {"smiles": "COc1cc(C(=O)NCCN2CCC2)ccc1Nc1ncc2c(n1)N(C1CCCC1)CC(C)(C)C(=O)N2C", "note": "[Compound I-38]", "Ki": "< 10"},
      {"smiles": "CNC(=O)c1ccc(Nc2ncc3c(n2)N(C2CCN(C)CC2)CC(C)(C)C(=O)N3C)c(OC)c1", "note": "[Compound I-97, 4-(6,7,8,9-tetrahydro-5,7,7-trimethyl-9-((R)-1-methylpiperidine-4-yl)-6-oxo-5H-pyrimido[4,5-b][1,4]diazepin-2-ylamino)-3-methoxy-N-methylbenzamide]", "Ki": "10 to 100"},
      {"smiles": "CN1C(=O)C(C)(C)CN(C2CCCC2)c2nc(Nc3ccc(C(=O)NCCO)cc3)ncc21", "note": "[Compound I-87, 4-(9-cyclopentyl-6,7,8,9-tetrahydro-5,7,7-trimethyl-6-oxo-5H-pyrimido[4,5-b][1,4]diazepin-2-ylamino)-N-(2-hydroxyethyl)benzamide]", "Ki": "< 10"},
      {"smiles": "CCc1cc(C(=O)NC)ccc1Nc1ncc2c(n1)N(C1CCCC1)CC(C)(C)C(=O)N2C", "note": "[Compound I-118, 4-(9-cyclopentyl-6,7,8,9-tetrahydro-5,7,7-trimethyl-6-oxo-5H-pyrimido[4,5-b][1,4]diazepin-2-ylamino)-3-ethyl-N-methylbenzamide]", "Ki": "< 10"},
      {"smiles": "COc1cc(C(=O)NC[C@@H]2CCCC[C@@H]2O)ccc1Nc1ncc2c(n1)N(C1CCCC1)CC1(CC1)C(=O)N2C", "note": "[Compound I-252, 4-(9′-cyclopentyl-5′-methyl-6′-oxo-5′,6′,8′,9′-tetrahydrospiro[cyclopropane-1,7′-pyrimido[4,5-b][1,4]diazepine]-2′-ylamino)-N-(((1S,2S)-2-hydroxycyclohexyl)methyl)-3-methoxybenzamide]", "Ki": "< 10"},
      {"smiles": "CN1C(=O)C(C)(C)CN(C2CCCC2)c2nc(Nc3cccc(C(=O)N4CC(F)(C5CC5)C4)c3)ncc21", "note": "[Compound I-152, 9-Cyclopentyl-2-[3-(3-cyclopropyl-3-fluoro-azetidine-1-carbonyl)-phenylamino]-5,7,7-trimethyl-5,7,8,9-tetrahydro-pyrimido[4,5-b][1,4]diazepin-6-one]", "Ki": "10 to 100"},
      {"smiles": "COc1cc(C(=O)NC2CCCC2)ccc1Nc1ncc2c(n1)N(C1CCCC1)C[C@@H](C)C(=O)N2C", "note": "[Compound I-185, (R)—N-cyclopentyl-4-(9-cyclopentyl-5,7-dimethyl-6-oxo-6,7,8,9-tetrahydro-5H-pyrimido[4,5-b][1,4]diazepin-2-ylamino)-3-methoxybenzamide]", "Ki": "< 10"},
      {"smiles": "COc1cc(C(=O)NCCN2CCCC2)ccc1Nc1ncc2c(n1)N(C1CCCC1)CC(C)(C)C(=O)N2C", "note": "[Compound I-34, 4-(9-cyclopentyl-6,7,8,9-tetrahydro-5,7,7-trimethyl-6-oxo-5H-pyrimido[4,5-b][1,4]diazepin-2-ylamino)-3-methoxy-N-(2-(pyrrolidin-1-yl)ethyl)benzamide]", "Ki": "< 10"},
      {"smiles": "COc1cc(C(=O)NC2CCCC2)ccc1Nc1ncc2c(n1)N(C1CCCC1)CC1(CC1)C(=O)N2C", "note": "[Compound I-176, N-cyclopentyl-4-(9′-cyclopentyl-5′-methyl-6′-oxo-5′,6′,8′,9′-tetrahydrospiro[cyclopropane-1,7′-pyrimido[4,5-b][1,4]diazepine]-2′-ylamino)-3-methoxybenzamide]", "Ki": "< 10"},
      {"smiles": "CNC(=O)c1ccc(Nc2ncc3c(n2)N(CC(C)(C)C)CC(C)(C)C(=O)N3C)c(OC)c1", "note": "[Compound I-168, 4-(6,7,8,9-tetrahydro-5,7,7-trimethyl-9-neopentyl-6-oxo-5H-pyrimido[4,5-b][1,4]diazepin-2-ylamino)-3-methoxy-N-methylbenzamide]", "Ki": "10 to 100"},
      {"smiles": "COc1cc(C(=O)NC2CCN(C(C)(C)C)CC2)ccc1Nc1ncc2c(n1)N(C1CCCC1)CC(C)(C)C(=O)N2C", "note": "[Compound I-71, 4-(9-cyclopentyl-6,7,8,9-tetrahydro-5,7,7-trimethyl-6-oxo-5H-pyrimido[4,5-b][1,4]diazepin-2-ylamino)-N-(1-tert-butylpiperidin-4-yl)-3-methoxybenzamide]", "Ki": "< 10"}
    ]}
  ]
}
